From the METLIN SMRT retention time set (Domingo-Almenara et al. 2019) come the findings set out here.

SMILES strings stand for the structures.

The data set in a line: gradient 5% acetonitrile 3 min, to 50% in 2 min, to 85% in 15 min, held 3 min, 100 µL/min. To be noted: column: Zorbax Extend-C18 2.1 x 50 mm; eluents: water / acetonitrile, 0.1% formic acid. In short, it runs like this:
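Pure standards were analyzed in mixtures of ~100 molecules using HPLC coupled to a quadrupole time-of-flight mass spectrometer, in both positive and negative ionization mode. Separation used a Zorbax Extend-C18 column (2.1 × 50 mm, 1.8 μm) at 100 μL/min, with water and acetonitrile each containing 0.1% formic acid. Dead and dwell volumes were 40 μL and 900 μL, and data were collected over 3 months. Retention time was read from computationally picked adduct peaks, each inspected manually.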
`Cn1c(C2CCN(C(=O)NCc3ccc(F)cc3)CC2)cc(=O)n2nccc12` came in with an RP-LC retention time of 644 s.

The molecule `Cc1ccc(-c2c(C(=O)NCc3ccco3)nc3ccccn23)cc1` showed an RP-LC retention time of 1150 s.

`CCc1nnc(-c2ccc3ccn(CC(=O)NCc4ccc(N(C)C)cc4)c3c2)o1` showed an RP-LC retention time of 640 s.

Molecule `O=C1COc2cc(S(=O)(=O)N3CCCC3C(=O)NCc3ccc4c(c3)OCO4)c(Cl)cc2N1` (stereo not drawn) displayed an RP-LC retention time of 725 s.

As to `COc1cc(NS(=O)(=O)c2ccc(N)cc2)nc(OC)n1`, the RP-LC retention time worked out at 680 s.

`CCc1nc2cc(-c3noc(-c4cc(F)ccc4Cl)n3)ccc2o1` returned an RP-LC retention time of 1270 s.

`O=C1NCCCn2cc(S(=O)(=O)Nc3ccc(OC(F)(F)F)cc3)cc21` gave an RP-LC retention time of 739 s.

Take `COc1cccc(CN2CC(N(C3CCOCC3)S(C)(=O)=O)C2)c1`: the RP-LC retention time was 614 s.

As for `CCOC(=O)c1cccc(N2C=C(C(=O)OC)S(=O)(=O)c3ccc(F)cc32)c1`, the RP-LC retention time was found to be 908 s.

Molecule `O=C(N1CCC(Cc2nc(-c3ccccc3)n[nH]2)C1)C1(c2ccccc2)CC1` (stereo not drawn) returned an RP-LC retention time of 755 s.

On to `O=S(=O)(c1ccccc1F)N1CCc2nc(-c3ccc(Cl)cc3)ncc2C1`, for which the RP-LC retention time worked out at 1190 s.

Take `Cc1ccc(S(=O)(=O)N2C[C@@H](F)C[C@H]2C(=O)N2CCCCC2)cc1Cl`: the RP-LC retention time was determined as 826 s.

As for `CNC(=O)c1c(NC(=O)COc2ccc(Cl)cc2)sc2c1CCC2`, the RP-LC retention time amounted to 1100 s.

The molecule `CC(C)OCCCNC(=O)CC1=C2CCCCC2NC1=O` (stereo not drawn) yielded an RP-LC retention time of 628 s.

With `C=Cc1ccc(CN2C(=O)N(c3cccc(F)c3)c3ncccc3S2(=O)=O)cc1`, the RP-LC retention time was 834 s.

On to `CCS(=O)(=O)N1CC(=O)N(c2ccc(Cl)cc2)C(C)(C(=O)NC2CCCCCCC2)C1` (stereo not drawn), for which the RP-LC retention time turned out to be 993 s.

Consider `COC(=O)c1scc(-c2ccccc2)c1S(=O)(=O)N1CCN(c2ccccn2)CC1`, for which the RP-LC retention time stood at 729 s.

Turning to `CN1C(=O)C(C)(C)c2cc(S(=O)(=O)N(C)CC(=O)N3CCN(c4ccccn4)CC3)ccc21`, the RP-LC retention time came out at 610 s.

Consider `COc1ccc(N2C=C(C#N)S(=O)(=O)c3cc(F)ccc32)c(OC)c1`, for which the RP-LC retention time amounted to 893 s.

As to `Cc1cc2cc(CNC(=O)C(=O)c3c(C)[nH]c4ccccc34)ccc2[nH]1`, the RP-LC retention time was 1010 s.

With `O=C(NC1CCCCC1)C1CCN(Cc2cc3ccccc3n2Cc2cccc(Cl)c2)CC1`, the RP-LC retention time amounted to 847 s.

In turn, `O=C(NCCc1ccncc1)C1CN(C(=O)c2cccs2)CC12CCCCC2` (stereo not drawn) registered an RP-LC retention time of 610 s.

As to `Cc1ccc(C(=O)Nc2cnc(N3CCCCC3)nc2)s1`, the RP-LC retention time came out at 822 s.

As to `COc1ccc2[nH]c(=O)c(CCC(=O)NCc3cccc(OC)c3OC)cc2c1`, the RP-LC retention time is 694 s.

Molecule `CCOC(=O)c1ccc(Nc2ncccc2S(N)(=O)=O)cc1` showed an RP-LC retention time of 841 s.

`Cc1cc(C)cc(NC(=O)C2CCCN(S(=O)(=O)c3c[nH]c(C(=O)N4CCCCCC4)c3)C2)c1` (stereo not drawn) displayed an RP-LC retention time of 955 s.

The molecule `COC[C@@H]1CN(S(=O)(=O)c2ccccc2F)C[C@H]1c1ccncc1` displayed an RP-LC retention time of 745 s.

`Cc1ccc(CNC(=O)C2(C)CCN(C(=O)Nc3ccc(C)cc3Cl)CC2)cc1` showed an RP-LC retention time of 956 s.

`Cc1ccsc1C(=O)NCc1ccc2c(c1)ncn2C` registered an RP-LC retention time of 597 s.

For `CCNC(=O)c1c(-c2cccnc2)noc1C`, the RP-LC retention time came out at 583 s.

`CC1=C(c2ccccc2)S(=O)(=O)N=C1N1CCCN(C(=O)Nc2cccc(C#N)c2)CC1` registered an RP-LC retention time of 814 s.

As to `CCn1cc(-c2nc(C)c(C(=O)NCc3ccccc3C)s2)c2cccnc21`, the RP-LC retention time stood at 995 s.

Consider `CC(C)N1CCC(CC(=O)N2CCc3c(c(-c4nc(C5CC5)no4)nn3C)C2)CC1`, for which the RP-LC retention time turned out to be 612 s.

Regarding `COc1ccc(-c2nc(-n3c(C)c4c(C)nnc(C)c4c3C)sc2C)cc1`, the RP-LC retention time turned out to be 726 s.

In turn, `Cc1noc(-c2nn(C)c3c2CN(C(=O)NC(C)C)CC3)n1` showed an RP-LC retention time of 640 s.

The molecule `Cc1noc(COC2CCN(C(=O)c3ccc4c(c3)OCO4)CC2)n1` gave an RP-LC retention time of 702 s.

`Cc1cc(C)cc(NC(=O)Cn2cc(-c3noc(-c4ccncc4)n3)nc2C)c1` gave an RP-LC retention time of 735 s.

`CN1C(=O)c2[nH]nc(-c3ccccc3)c2C1c1ccc(O)cc1` (stereo not drawn) came in with an RP-LC retention time of 670 s.

With `COCCN1C(=O)[C@H]2CN(Cc3ccc(C(C)C)cc3)C[C@H]2C1=O`, the RP-LC retention time is 674 s.

The molecule `O=c1c2oc3ccccc3c2ncn1Cc1nc(-c2cccc(Cl)c2)no1` yielded an RP-LC retention time of 1010 s.

As for `COc1cc(-c2nc3ncccn3c2Nc2ccc(C)cc2C)ccc1O`, the RP-LC retention time was 682 s.

On to `Cc1nc2ccc(Cl)cn2c(=O)c1NC(=O)Cc1ccc(-c2ccccc2)cc1`, for which the RP-LC retention time came to 775 s.

`CC(=O)Nc1ccc(S(=O)(=O)N2CCc3c(c(-c4nnc(-c5ccc(F)cc5)o4)nn3C)C2)cc1`: the RP-LC retention time came to 783 s.

`COc1ccc(OCC(=O)N2CCN(c3nc(CN4CCOCC4)cs3)CC2)cc1`: the RP-LC retention time stood at 611 s.

Turning to `CC1CCN(CCCNC(=O)C2CCN(S(=O)(=O)c3ccc4c(c3)sc(=O)n4C)CC2)CC1`, the RP-LC retention time was 1060 s.

`CN1C(=O)c2cc(C(=O)NCCc3ccccc3)nn2CC1(C)C(=O)NCc1ccc(F)cc1` (stereo not drawn) yielded an RP-LC retention time of 768 s.

Turning to `COc1ccc(N2C=C(C#N)S(=O)(=O)c3ccc(F)cc32)cc1Cl`, the RP-LC retention time came to 948 s.

Consider `CC(C)(C)c1cc(NCc2ccccn2)n2ncc(-c3ccccc3)c2n1`, for which the RP-LC retention time came to 1230 s.

Take `O=C(c1ccc2c(c1)CCCN2S(=O)(=O)c1ccccc1)N1CCOCC1`: the RP-LC retention time was 787 s.

Regarding `COc1ccccc1CCC(=O)N1C[C@@H]2C[C@H](NC(=O)c3ccccc3)[C@H]1C2`, the RP-LC retention time is 816 s.

Regarding `COC(=O)c1ccc(Cl)cc1NC(=O)N1CCCn2nc(-c3cccs3)cc2C1`, the RP-LC retention time worked out at 1120 s.

Regarding `Cc1c(Cl)cccc1NC(=O)Nc1cccc(-c2ccc(N3CCOCC3)nn2)c1`, the RP-LC retention time was found to be 753 s.

In turn, `Cc1nn(CC(=O)N2CCN(c3ccccc3)CC2)c(=O)c2nc(-c3ccccc3)sc12` showed an RP-LC retention time of 924 s.

Regarding `COCCC1(NC(=O)c2ccoc2)CCN(CC2CC2)CC1`, the RP-LC retention time was 581 s.

Regarding `OC1(c2ccccn2)CCOC2(CCN(Cc3ccc(Cl)cc3F)CC2)C1` (stereo not drawn), the RP-LC retention time was 579 s.

For `CCCCn1cc(S(=O)(=O)NCc2ccccc2)c2cccnc21`, the RP-LC retention time was 946 s.

In turn, `Cc1cc(C)cc(NS(=O)(=O)c2c(C)sc(C)c2-c2cc(C(F)(F)F)on2)c1` had an RP-LC retention time of 1240 s.

In turn, `Cc1ccc(C(=O)NCc2ccc3c(c2)ncn3C)c(C)c1` returned an RP-LC retention time of 611 s.

`Cc1cccc2nnc(N3CCC(C(=O)NCc4ccccc4Cl)CC3)n12` registered an RP-LC retention time of 679 s.

Regarding `Cc1cccc(S(=O)(=O)N2CCN(c3cc(C)nc(NC4CCCCC4)n3)CC2)c1`, the RP-LC retention time stood at 860 s.

The molecule `CCN1CCN(S(=O)(=O)c2cc(-c3nnc(-c4ccc(OC)c(OC)c4)o3)ccc2C)CC1` registered an RP-LC retention time of 1180 s.

`CCC(C)NC(=O)NCCC1CCN(S(=O)(=O)c2ccccc2)CC1` (stereo not drawn) returned an RP-LC retention time of 742 s.

In turn, `CCn1ccc(C(=O)N2CCC3(CC2)c2nccn2-c2ccccc2CN3CC(C)C)n1` had an RP-LC retention time of 599 s.

`COc1ccc(CNC(=O)CSc2nnc(-c3ccccc3)n2-n2cccc2)cc1` yielded an RP-LC retention time of 775 s.

`O=C1CSC(c2ccccc2Cl)c2cc(Cl)ccc2N1` (stereo not drawn) gave an RP-LC retention time of 987 s.

The molecule `O=C(C1CCC1)N1CCc2sc(S(=O)(=O)N3CCN(c4ccccc4)CC3)cc2C1` showed an RP-LC retention time of 1060 s.

With `Cc1ccc(NC(=O)C2CCN(S(=O)(=O)c3ccc4c(c3)NC(=O)C(C)O4)CC2)cc1F` (stereo not drawn), the RP-LC retention time worked out at 910 s.

In turn, `CCOC(=O)c1ccc(Nc2c(C(=O)N3CCCCC3C)cnc3nc(C)ccc23)cc1` (stereo not drawn) showed an RP-LC retention time of 653 s.

As to `COc1ccc(-c2coc3cc(OCC(=O)O)ccc3c2=O)cc1OC`, the RP-LC retention time was 703 s.

Molecule `Cc1cc(C)cc(Oc2nccn3c(=O)n(CC(=O)Nc4cccc(Cl)c4C)nc23)c1` came in with an RP-LC retention time of 992 s.

In the case of `COCC(=O)NC1CCC12CCN(C(=O)c1ccoc1)CC2` (stereo not drawn), the RP-LC retention time turned out to be 643 s.

With `COc1ccc(N2CCN(c3nccc4ccc(C(=O)NC5CCCCCC5)cc34)CC2)cc1`, the RP-LC retention time is 835 s.

Molecule `CC1(C(=O)NCc2ccccc2)Cn2c(ccc2-c2ccco2)C(=O)N1C1CC1` (stereo not drawn) returned an RP-LC retention time of 810 s.

Regarding `CN(C)c1cccc(C(=O)Nc2ccc(CC(=O)NC(C)(C)CO)cc2)c1`, the RP-LC retention time came out at 594 s.

The molecule `O=C(CN1C(=O)COc2ccc(C(=O)N3CCCCC3)cc21)N1CCc2ccccc2C1` yielded an RP-LC retention time of 788 s.

Turning to `Cn1cccc1C(=O)C(=O)N1CCN(Cc2ccc3c(c2)OCO3)CC1`, the RP-LC retention time stood at 596 s.

For `CCc1ccc(C2=C(C)C(N3CCCN(C(=O)C(C)CC)CC3)=NS2(=O)=O)cc1` (stereo not drawn), the RP-LC retention time stood at 888 s.

Molecule `CCC(=O)Nc1ccc(CCc2nc3ccc(C(=O)NCc4ccc5c(c4)OCO5)cc3[nH]2)cc1` had an RP-LC retention time of 644 s.
